From patent US12077503B2, “Substituted cyclic amides and their use as herbicides” (FMC CORPORATION, priority 2015, dated 2024)

Assays:
Assay type in all cases: in vivo
[1] = tested on: sedge, umbrella (small-flower umbrella sedge, Cyperus difformis); experiment: Test C flooded paddy test; settings: Flood, 0 is no effect, 100 is complete control
In short: (§1)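 Scores express visual response relative to untreated controls, 0 meaning no effect and 100 complete control, assessed 13 to 15 d after treatment in the greenhouse. Compound went into water flooded 3 cm above soil around 2-leaf plants.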

[2] = tested on: barnyardgrass (Echinochloa crus-galli); experiment: Test C flooded paddy test; settings: Flood, 0 is no effect, 100 is complete control
In short: as §1

[3] = tested on: Russian thistle (Salsola kali); experiment: Test D preemergence; settings: scale 0 to 100
From the text: (§2) Seeds of plant species selected from bluegrass (annual bluegrass, Poa annua), blackgrass (Alopecurus myosuroides), canarygrass (littleseed canarygrass, Phalaris minor), chickweed (common chickweed, Stellaria media), Galium (catchweed bedstraw, Galium aparine), bromegrass, downy (downy bromegrass, Bromus tectorum), field poppy (Papaver rhoeas), field violet (Viola arvensis), foxtail, green (green foxtail, Setaria viridis), deadnettle (henbit deadnettle, Lamium amplexicaule), ryegrass, Italian (Italian ryegrass, Lolium multiflorum), Kochia (Kochia scoparia), lambsquarters (Chenopodium album), oilseed rape (Brassica napus), pigweed (Amaranthus retroflexus), chamomile (scentless chamomile, Matricaria inodora), Russian thistle (Salsola kali), speedwell (bird's-eye speedwell, Veronica persica), barley, spring (spring barley, Hordeum vulgare), wheat, spring (spring wheat, Triticum aestivum), buckwheat, wild (wild buckwheat, Polygonum convolvulus), mustard, wild (wild mustard, Sinapis arvensis), oat, wild (wild oat, Avena fatua), radish, wild (wild radish, Raphanus raphanistrum), windgrass (Apera spica-venti), barley, winter (winter barley Hordeum vulgare), and wheat, winter (winter wheat, Triticum aestivum) were planted into a silt loam soil and treated preemergence with test chemicals formulated in a non-phytotoxic solvent mixture which included a surfactant.
(§3) Treated plants and controls were maintained in a controlled growth environment approximately 21 d after which time all species were compared to controls and visually evaluated. Plant response ratings, summarized in Table D, are based on a scale of 0 to 100 where 0 is no effect and 100 is complete control. A dash (-) response means no test result.

[4] = tested on: blackgrass (Alopecurus myosuroides); experiment: Test D preemergence; settings: scale 0 to 100
From the text: as §2, §3

[5] = tested on: barley, spring (spring barley, Hordeum vulgare); experiment: Test D preemergence; settings: scale 0 to 100
From the text: as §2, §3

[6] = tested on: buckwheat, wild (wild buckwheat, Polygonum convolvulus); experiment: Test D preemergence; settings: scale 0 to 100
From the text: as §2, §3

[7] = tested on: ryegrass, Italian (Italian ryegrass, Lolium multiflorum); experiment: Test D preemergence; settings: scale 0 to 100
From the text: as §2, §3

[8] = tested on: windgrass (Apera spica-venti); experiment: Test D preemergence; settings: scale 0 to 100
From the text: as §2, §3

[9] = tested on: radish, wild (wild radish, Raphanus raphanistrum); experiment: Test D preemergence; settings: scale 0 to 100
From the text: as §2, §3

[10] = tested on: wheat, spring (spring wheat, Triticum aestivum); experiment: Test D preemergence; settings: scale 0 to 100
From the text: as §2, §3

[11] = tested on: field poppy (Papaver rhoeas); experiment: Test D preemergence; settings: scale 0 to 100
From the text: as §2, §3

[12] = tested on: oilseed rape (Brassica napus); experiment: Test D preemergence; settings: scale 0 to 100
From the text: as §2, §3

[13] = tested on: chamomile (scentless chamomile, Matricaria inodora); experiment: Test D preemergence; settings: scale 0 to 100
From the text: as §2, §3

[14] = tested on: bluegrass (annual bluegrass, Poa annua); experiment: Test D preemergence; settings: scale 0 to 100
From the text: as §2, §3

[15] = tested on: bromegrass, downy (downy bromegrass, Bromus tectorum); experiment: Test D preemergence; settings: scale 0 to 100
From the text: as §2, §3

[16] = tested on: deadnettle (henbit deadnettle, Lamium amplexicaule); experiment: Test D preemergence; settings: scale 0 to 100
From the text: as §2, §3

[17] = tested on: chickweed (common chickweed, Stellaria media); experiment: Test D preemergence; settings: scale 0 to 100
From the text: as §2, §3

[18] = tested on: Kochia (Kochia scoparia); experiment: Test D preemergence; settings: scale 0 to 100
From the text: as §2, §3

[19] = tested on: field violet (Viola arvensis); experiment: Test D preemergence; settings: scale 0 to 100
From the text: as §2, §3

## CN1CC(c2cccc(C(F)(F)F)c2)C(C(=O)Nc2ccccc2S(C)(=O)=O)C1=O (centres unmarked) [Compound 637]
[1]; 31 g ai/ha
  Plant response rating (scale of 0 to 100), Sedge, Umbrella: 0
[1]; 62 g ai/ha
  Plant response rating (scale of 0 to 100), Sedge, Umbrella: 0
[1]; 125 g ai/ha
  Plant response rating (scale of 0 to 100), Sedge, Umbrella: 0
[1]; 250 g ai/ha
  Plant response rating (scale of 0 to 100), Sedge, Umbrella: 0
[2]; 31 g ai/ha
  Plant response rating (scale of 0 to 100), Barnyardgrass: 35
[2]; 62 g ai/ha
  Plant response rating (scale of 0 to 100), Barnyardgrass: 40
[2]; 125 g ai/ha
  Plant response rating (scale of 0 to 100), Barnyardgrass: 60
[2]; 250 g ai/ha
  Plant response rating (scale of 0 to 100), Barnyardgrass: 75
[3]; 31 g ai/ha
  Plant response rating: Russian Thistle: 0
[3]; 62 g ai/ha
  Plant response rating: Russian Thistle: 0
[3]; 125 g ai/ha
  Plant response rating: Russian Thistle: 10
[3]; 250 g ai/ha
  Plant response rating: Russian Thistle: 50
[4]; 31 g ai/ha
  Plant response rating: Blackgrass: 10
[4]; 62 g ai/ha
  Plant response rating: Blackgrass: 10
[4]; 125 g ai/ha
  Plant response rating: Blackgrass: 45
[4]; 250 g ai/ha
  Plant response rating: Blackgrass: 50
[5]; 31 g ai/ha
  Plant response rating: Barley, Spring: 0
[5]; 62 g ai/ha
  Plant response rating: Barley, Spring: 20
[5]; 125 g ai/ha
  Plant response rating: Barley, Spring: 40
[5]; 250 g ai/ha
  Plant response rating: Barley, Spring: 70
[6]; 31 g ai/ha
  Plant response rating: Buckwheat, Wild: 0
[6]; 62 g ai/ha
  Plant response rating: Buckwheat, Wild: 10
[6]; 125 g ai/ha
  Plant response rating: Buckwheat, Wild: 15
[6]; 250 g ai/ha
  Plant response rating: Buckwheat, Wild: 80
[7]; 31 g ai/ha
  Plant response rating: Ryegrass, Italian: 0
[7]; 62 g ai/ha
  Plant response rating: Ryegrass, Italian: 0
[7]; 125 g ai/ha
  Plant response rating: Ryegrass, Italian: 20
[7]; 250 g ai/ha
  Plant response rating: Ryegrass, Italian: 20
[8]; 31 g ai/ha
  Plant response rating: Windgrass: 10
[8]; 62 g ai/ha
  Plant response rating: Windgrass: 25
[8]; 125 g ai/ha
  Plant response rating: Windgrass: 85
[8]; 250 g ai/ha
  Plant response rating: Windgrass: 95
[9]; 62 g ai/ha
  Plant response rating: Radish, Wild: 20
[9]; 125 g ai/ha
  Plant response rating: Radish, Wild: 20
[9]; 250 g ai/ha
  Plant response rating: Radish, Wild: 90
[10]; 31 g ai/ha
  Plant response rating: Wheat, Spring: 5
[10]; 62 g ai/ha
  Plant response rating: Wheat, Spring: 30
[10]; 125 g ai/ha
  Plant response rating: Wheat, Spring: 80
[10]; 250 g ai/ha
  Plant response rating: Wheat, Spring: 70
[11]; 31 g ai/ha
  Plant response rating: Field Poppy: 100
[11]; 62 g ai/ha
  Plant response rating: Field Poppy: 100
[11]; 125 g ai/ha
  Plant response rating: Field Poppy: 100
[11]; 250 g ai/ha
  Plant response rating: Field Poppy: 100
[12]; 31 g ai/ha
  Plant response rating: Oilseed Rape: 0
[12]; 62 g ai/ha
  Plant response rating: Oilseed Rape: 40
[12]; 125 g ai/ha
  Plant response rating: Oilseed Rape: 40
[12]; 250 g ai/ha
  Plant response rating: Oilseed Rape: 65
[13]; 31 g ai/ha
  Plant response rating: Chamomile: 0
[13]; 125 g ai/ha
  Plant response rating: Chamomile: 90
[13]; 250 g ai/ha
  Plant response rating: Chamomile: 90
[14]; 31 g ai/ha
  Plant response rating: Bluegrass: 5
[14]; 62 g ai/ha
  Plant response rating: Bluegrass: 25
[14]; 125 g ai/ha
  Plant response rating: Bluegrass: 75
[14]; 250 g ai/ha
  Plant response rating: Bluegrass: 100
[15]; 31 g ai/ha
  Plant response rating: Bromegrass, Downy: 0
[15]; 62 g ai/ha
  Plant response rating: Bromegrass, Downy: 10
[15]; 125 g ai/ha
  Plant response rating: Bromegrass, Downy: 25
[15]; 250 g ai/ha
  Plant response rating: Bromegrass, Downy: 40
[16]; 31 g ai/ha
  Plant response rating: Deadnettle: 0
[16]; 62 g ai/ha
  Plant response rating: Deadnettle: 0
[16]; 125 g ai/ha
  Plant response rating: Deadnettle: 25
[16]; 250 g ai/ha
  Plant response rating: Deadnettle: 65
[17]; 31 g ai/ha
  Plant response rating: Chickweed: 0
[17]; 62 g ai/ha
  Plant response rating: Chickweed: 5
[17]; 125 g ai/ha
  Plant response rating: Chickweed: 65
[17]; 250 g ai/ha
  Plant response rating: Chickweed: 75
[18]; 31 g ai/ha
  Plant response rating: Kochia: 5
[18]; 62 g ai/ha
  Plant response rating: Kochia: 0
[18]; 125 g ai/ha
  Plant response rating: Kochia: 35
[18]; 250 g ai/ha
  Plant response rating: Kochia: 85
[19]; 31 g ai/ha
  Plant response rating: Field Violet: 0
[19]; 62 g ai/ha
  Plant response rating: Field Violet: 0
[19]; 125 g ai/ha
  Plant response rating: Field Violet: 0
[19]; 250 g ai/ha
  Plant response rating: Field Violet: 0
